In brackets after ≈: the same amount, converted by molar mass.
Key:
Type in all cases: cell-based
[1] = test system: Streptococcus pyogenes ATCC19615; test: MIC, microbroth dilution (NCCLS); conditions: rifS strain, THY Broth, 37° C., read-out: Antimicrobial activity (MIC)
[2] = test system: Haemophilus influenzae ATCC10211; test: MIC, microbroth dilution (NCCLS); conditions: rifS strain, BHI Broth with NAD and hematin, 37° C., read-out: Antimicrobial activity (MIC)
[3] = test system: Staphylococcus aureus ATCC29213; test: MIC, microbroth dilution (NCCLS); conditions: rifS strain, Cation-Adjusted Mueller-Hinton Broth, 37° C., read-out: Antimicrobial activity (MIC)
[4] = test system: Streptococcus pneumoniae ATCC6303; test: MIC, microbroth dilution (NCCLS); conditions: rifS strain, THY Broth with 1 mg/mL catalase, 5% CO2, 37° C., read-out: Antimicrobial activity (MIC)
[5] = test system: Enterococcus faecalis ATCC29212; test: MIC, microbroth dilution (NCCLS); conditions: rifS strain, BHI Broth, 37° C., read-out: Antimicrobial activity (MIC)
[6] = test system: Mycobacterium smegmatis ATCC700084; test: MIC, microbroth dilution (NCCLS); conditions: Mycolicibacterium smegmatis, rifS strain, Middlebrook Broth plus ADC Enrichment, 37° C., read-out: Antimicrobial activity (MIC)
[7] = test system: Staphylococcus aureus EN1252a gyrA^S84L grlA^S80F; test: microbe, parasite or virus in culture; conditions: read-out: Antimicrobial activity (MIC)
Protocol: (§1) Representative compounds were assayed for antimicrobial activity as follows: Minimum Inhibitory Concentrations (“MICs”) were determined by the microbroth dilution method as per NCCLS guidelines (National Committee for Clinical Laboratory Standards. 2000. Methods for dilution antimicrobial susceptibility tests for bacteria that grow aerobically, 5th ed. M7-A5. National Committee for Clinical Laboratory Standards, Wayne, Pa.), except that all growth incubations were conducted at 37° C. Bacterial cultures were tested in the following bacteriological media: S. aureus, S. epidermidis, and E. coli in Cation-Adjusted Mueller-Hinton Broth, S. pneumoniae in THY Broth supplemented with 1 mg/mL catalase under 5% CO2 atmosphere, S. pyogenes in THY Broth, E. faecalis in BHI Broth, H. influenzae in BHI Broth supplemented with 0.75 μL of 1 mg/mL NAD and 150 μL of 1 mg/ml hematin per 5 mL, and M. smegmatis in Middlebrook Broth plus ADC Enrichment.
(§2) S. aureus ATCC 29213 RpoB^H418Y is a rifampin-resistant strain with a mutation in RNA polymerase, the biological target of rifamycin antibiotics. […] S. aureus EN1252a gyrA^S84L grlA^S80F is a quinolone-resistant strain due to double mutations to DNA gyrase and topoisomerase IV, the two biological targets for quinolone antibiotics.

[8] = test system: Staphylococcus aureus ATCC29213 rpoB^D417Y; test: microbe, parasite or virus in culture; conditions: ATCC29213, read-out: Antimicrobial activity (MIC)
Protocol: as §1, §2

[9] = test system: Staphylococcus aureus ATCC29213 rpoB^H418Y; test: microbe, parasite or virus in culture; conditions: ATCC29213, read-out: Antimicrobial activity (MIC)
Protocol: as §1, §2

[10] = test system: Staphylococcus epidermidis ATCC12228; test: MIC, microbroth dilution (NCCLS); conditions: rifS strain, Cation-Adjusted Mueller-Hinton Broth, 37° C., read-out: Antimicrobial activity (MIC)
[11] = test system: Escherichia coli ATCC25922; test: MIC, microbroth dilution (NCCLS); conditions: rifS strain, Cation-Adjusted Mueller-Hinton Broth, 37° C., read-out: Antimicrobial activity (MIC)

Row | SMILES | MIC [1] | MIC [2] | MIC [3] | MIC [4] | MIC [5] | MIC [6] | MIC [7] | MIC [8] | MIC [9] | MIC [10] | MIC [11]
1 | COc1c(N2CCC(C3(N(C)C4CCN(C5=C6NC(=O)/C(C)=C\C=C\[C@H](C)[C@H](O)[C@@H](C)[C@@H](O)[C@@H](C)[C@H](OC(C)=O)[C@H](C)[C@@H](OC)/C=C/O[C@@]7(C)Oc8c(C)c(O)c(c(c8C7=O)C5=O)C6=O)CC4)CC3)C2)c(F)cc2c(=O)c(C(=O)O)cn(C3CC3)c12 (mixture of isomers) [Example 41] | 0.008 to 0.063 µg/mL (≈ 0.00671 to 0.0528 µM) | 0.125 to 2 µg/mL (≈ 0.105 to 1.68 µM) | 0.004 to 0.5 µg/mL (≈ 0.00335 to 0.419 µM) | 0.008 to 0.125 µg/mL (≈ 0.00671 to 0.105 µM) | 2 to 32 µg/mL (≈ 1.68 to 26.8 µM) | 0.5 to 64 µg/mL | 0.004 to 0.5 µg/mL (≈ 0.00335 to 0.419 µM) | 0.06 to 32 µg/mL (≈ 0.0503 to 26.8 µM) | 0.06 to 16 µg/mL (≈ 0.0503 to 13.4 µM) | 0.008 to 0.063 µg/mL (≈ 0.00671 to 0.0528 µM) | 0.125 to 8 µg/mL (≈ 0.105 to 6.71 µM)
2 | CO[C@H]1/C=C/O[C@@]2(C)Oc3c(C)c(O)c4c(c3C2=O)C(=O)C(N2CC(C(=O)NC3CCN(c5c(F)cc6c(=O)c(C(=O)O)cn(C7CC7)c6c5Cl)C3)C2)=C(NC(=O)/C(C)=C\C=C\[C@H](C)[C@H](O)[C@@H](C)[C@@H](O)[C@@H](C)[C@H](OC(C)=O)[C@@H]1C)C4=O (mixture of isomers) [Example 43, (R/S)-3-{3-[1-(3-Carboxy-8-chloro-1-cyclopropyl-6-fluoro-4-oxo-1,4-dihydroquinolin-7-yl)-pyrrolidin-3-ylcarbamoyl]-azetidin-1-yl}rifamycin S] | 0.008 to 0.063 µg/mL (≈ 0.007 to 0.0551 µM) | 0.125 to 2 µg/mL (≈ 0.109 to 1.75 µM) | 0.004 to 0.5 µg/mL (≈ 0.0035 to 0.438 µM) | 0.008 to 0.125 µg/mL (≈ 0.007 to 0.109 µM) | 2 to 32 µg/mL (≈ 1.75 to 28 µM) | 0.5 to 64 µg/mL | 0.004 to 0.5 µg/mL (≈ 0.0035 to 0.438 µM) | 0.06 to 32 µg/mL (≈ 0.0525 to 28 µM) | 0.06 to 16 µg/mL (≈ 0.0525 to 14 µM) | 0.008 to 0.063 µg/mL (≈ 0.007 to 0.0551 µM) | 0.125 to 8 µg/mL (≈ 0.109 to 7 µM)
3 | COc1c(N2CCC(NC(=O)C3CN(C4=C5NC(=O)/C(C)=C\C=C\[C@H](C)[C@H](O)[C@@H](C)[C@@H](O)[C@@H](C)[C@H](OC(C)=O)[C@H](C)[C@@H](OC)/C=C/O[C@@]6(C)Oc7c(C)c(O)c(c(c7C6=O)C4=O)C5=O)C3)C2)c(F)cc2c(=O)c(C(=O)O)cn(C3CC3)c12 (mixture of isomers) [Example 44, (R/S)-3-{3-[1-(3-Carboxy-1-cyclopropyl-6-fluoro-8-methoxy-4-oxo-1,4-dihydroquinolin-7-yl)-pyrrolidin-3-ylcarbamoyl]-azetidin-1-yl}rifamycin S] | 0.008 to 0.063 µg/mL (≈ 0.00703 to 0.0554 µM) | 0.125 to 2 µg/mL (≈ 0.11 to 1.76 µM) | 0.004 to 0.5 µg/mL (≈ 0.00351 to 0.439 µM) | 0.008 to 0.125 µg/mL (≈ 0.00703 to 0.11 µM) | 2 to 32 µg/mL (≈ 1.76 to 28.1 µM) | 0.5 to 64 µg/mL | 0.004 to 0.5 µg/mL (≈ 0.00351 to 0.439 µM) | 0.06 to 32 µg/mL (≈ 0.0527 to 28.1 µM) | 0.06 to 16 µg/mL (≈ 0.0527 to 14.1 µM) | 0.008 to 0.063 µg/mL (≈ 0.00703 to 0.0554 µM) | 0.125 to 8 µg/mL (≈ 0.11 to 7.03 µM)
4 | CO[C@H]1/C=C/O[C@@]2(C)Oc3c(C)c(O)c4c(c3C2=O)C(=O)C(N2CCC(C(=O)NC3CCN(c5c(F)cc6c(=O)c(C(=O)O)cn(C7CC7)c6c5Cl)C3)CC2)=C(NC(=O)/C(C)=C\C=C\[C@H](C)[C@H](O)[C@@H](C)[C@@H](O)[C@@H](C)[C@H](OC(C)=O)[C@@H]1C)C4=O (mixture of isomers) [Example 49, (R/S)-3-{4-[1-(3-Carboxy-8-chloro-1-cyclopropyl-6-fluoro-4-oxo-1,4-dihydroquinolin-7-yl)-pyrrolidin-3-ylcarbamoyl]-piperidin-1-yl}rifamycin S] | 0.008 to 0.063 µg/mL (≈ 0.00683 to 0.0538 µM) | 0.125 to 2 µg/mL (≈ 0.107 to 1.71 µM) | 0.004 to 0.5 µg/mL (≈ 0.00342 to 0.427 µM) | 0.008 to 0.125 µg/mL (≈ 0.00683 to 0.107 µM) | 2 to 32 µg/mL (≈ 1.71 to 27.3 µM) | 0.5 to 64 µg/mL | 0.004 to 0.5 µg/mL (≈ 0.00342 to 0.427 µM) | 0.06 to 32 µg/mL (≈ 0.0513 to 27.3 µM) | 0.06 to 16 µg/mL (≈ 0.0513 to 13.7 µM) | 0.008 to 0.063 µg/mL (≈ 0.00683 to 0.0538 µM) | 0.125 to 8 µg/mL (≈ 0.107 to 6.83 µM)
5 | COc1c(N2CCC(NC(=O)C3CCN(C4=C5NC(=O)/C(C)=C\C=C\[C@H](C)[C@H](O)[C@@H](C)[C@@H](O)[C@@H](C)[C@H](OC(C)=O)[C@H](C)[C@@H](OC)/C=C/O[C@@]6(C)Oc7c(C)c(O)c(c(c7C6=O)C4=O)C5=O)CC3)C2)c(F)cc2c(=O)c(C(=O)O)cn(C3CC3)c12 (mixture of isomers) [Example 50, (R/S)-3-{4-[1-(3-Carboxy-1-cyclopropyl-6-fluoro-8-methoxy-4-oxo-1,4-dihydroquinolin-7-yl)-pyrrolidin-3-ylcarbamoyl]-piperidin-1-yl}rifamycin S] | 0.008 to 0.063 µg/mL (≈ 0.00686 to 0.054 µM) | 0.125 to 2 µg/mL (≈ 0.107 to 1.71 µM) | 0.004 to 0.5 µg/mL (≈ 0.00343 to 0.429 µM) | 0.008 to 0.125 µg/mL (≈ 0.00686 to 0.107 µM) | 2 to 32 µg/mL (≈ 1.71 to 27.4 µM) | 0.5 to 64 µg/mL | 0.004 to 0.5 µg/mL (≈ 0.00343 to 0.429 µM) | 0.06 to 32 µg/mL (≈ 0.0514 to 27.4 µM) | 0.06 to 16 µg/mL (≈ 0.0514 to 13.7 µM) | 0.008 to 0.063 µg/mL (≈ 0.00686 to 0.054 µM) | 0.125 to 8 µg/mL (≈ 0.107 to 6.86 µM)

Source: patent US7247634B2, “Rifamycin derivatives effective against drug-resistant microbes” (Cumbre Pharmaceuticals Inc., priority 2004, dated 2007)
